According to US20120128654A1, “Allantoin Administration for the Treatment of Neurodegenerative Disease and Neurotrauma” (UNIVERSITY OF CINCINNATI, priority 2009, published 2012):
“Also recorded” adds a separate entry of the source.

Assays:
[1] = tested on: 6-OHDA induced forelimb akinesia; assay: Cylinder testing for forelimb akinesia after intrastriatal 6-OHDA; type: in vivo, Sprague Dawley rats; settings: cylinder test, s.c. pellets implanted 3 days prior to intrastriatal 6-OHDA, four and six weeks post lesion, vs control
Description: Continuous s.c. delivery of INO, KO and ALL was achieved by implanting matrix-driven pellets into the s.c. space. Animals were anesthetized with isofluorane and prepared for surgery using sterile procedures. A small incision was made posterior to the scapula and the pellet was placed in the subscapular space contralateral to the incision. This placement technique prevents migration of the pellet towards the incision, thereby reducing the incidents of rejection. Finally, the incision was closed using aseptic procedures. To determine the roles of UA and allantoin in inosine-mediated neuroprotection, animals were treated with the urate oxidase inhibitor KO. This approach has been widely used to prevent the enzymatic metabolism of UA to allantoin in other rodent models of disease.
Rats were anesthetized prior to surgery with Equi-Thesin (0.3 ml/100 g body weight i.p.; chloral hydrate 42.5 mg/ml+sodium pentobarbital 9.72 mg/ml), their heads shaved, and then they were placed in a stereotaxic frame. Their skin was swabbed with Betadyne followed by 70% ETOH. The scalp was then opened to expose the skull. Two 1 mm holes were drilled into the skull and rats were injected in two sites in the striatum with 6-OHDA (MP Biomedicals, Solon, Ohio; 5 μg/μl 6-OHDA in 0.2% ascorbic acid, 0.9% saline solution). […]
Non-drugged, spontaneous use of the forepaws was measured in rats as described by Schallert (Schallert, T., Behavioral tests for preclinical intervention assessment, NeuroRx 3:497-504 (2006)) prior to pellet and intrastriatal 6-OHDA and at both four weeks and six weeks after 6-OHDA. […] Videotapes were analyzed by a rater blinded to treatment. The number of times the rat used its left, right, or both paws for weight bearing in a given trial was determined and noted. […]
In the first experiment, rats were divided into four different groups INO (n=6), INO/potassium oxonate (KO blocks conversion of UA to ALL) (n=6), ALL (n=6), and sham pellet implantation. […] In experiment 1, rats were assessed for forelimb akinesia prior to, and […] and 6 weeks after intrastriatal 6-OHDA infusion. […]

nigral THir neurons = assay: Unbiased stereological counts of THir cells in the substantia nigra after striatal 6-OHDA; type: in vivo, Sprague Dawley rats; settings: for number of surviving THir neurons in the lesioned SN relative to the intact side: s.c. pellets 3 days prior to intrastriatal 6-OHDA, 6 weeks post-6-OHDA (experiment 1); for protection of nigral THir neurons against striatal 6-OHDA infusion: s.c. pellets, 6 weeks post-6-OHDA, vs control
Description: Rats were anesthetized prior to surgery with Equi-Thesin (0.3 ml/100 g body weight i.p.; chloral hydrate 42.5 mg/ml+sodium pentobarbital 9.72 mg/ml), their heads shaved, and then they were placed in a stereotaxic frame. Their skin was swabbed with Betadyne followed by 70% ETOH. The scalp was then opened to expose the skull. Two 1 mm holes were drilled into the skull and rats were injected in two sites in the striatum with 6-OHDA (MP Biomedicals, Solon, Ohio; 5 μg/μl 6-OHDA in 0.2% ascorbic acid, 0.9% saline solution). The coordinates for these injections were AP −1.6 mm, ML +2.4 mm, DV −4.2 mm and AP −0.2 mm, +ML 2.6 mm, DV −7.0 mm. The needle was zeroed at the skull directly above the injection site in order to target the DV coordinate. For each injection, the needle was lowered slowly to the injection site and 1 minute elapsed before injection commenced, 6-OHDA was injected at 0.5 μl/minute and at the end of the injection the needle was held in place for an additional 2 minutes prior to retraction. The wound area was cleaned with Betadine solution and the scalp was closed with surgical wound clips. This lesion paradigm results in a progressive loss of TH phenotype and frank DA cell death.
Animals were deeply anesthetized (60 mg/kg, pentobarbital, i.p.) and perfused intracardially with warm 0.9% saline containing 1 ml/L 10,000 USP heparin followed by ice-cold 0.9% saline. For immunoshistochemistry brains were removed, post fixed for 24 hours in 4% paraformaldehyde and transferred to 30% sucrose in 0.1M PO4 buffer. For determination of purine levels brains were immediately removed and flash frozen in 3-methyl butane. Brains were stored at −80° C. until analysis.
Brains were frozen on dry ice and sectioned at a 40 μm thickness using a sliding microtome. Every sixth section through the SN was processed for labeling with antisera against TH. Following blocking in 10% normal goat serum, tissue was incubated in primary antisera directed against TH (Chemicon MAB318, mouse anti TH 1:4,000) overnight at room temperature. Following primary incubation, sections were incubated in biotinylated secondary antisera against mouse IgG (Chemicon AP124B, 1:400) followed by the Vector ABC detection kit employing horseradish peroxidase (Vector Laboratories, Burlingame, Calif.). Antibody labeling was visualized by exposure to 0.5 mg/ml 3,3′ diaminobenzidine (DAB) and 0.03% H2O2 in Tris buffer. Sections were mounted on subbed slides, dehydrated to xylene and coverslipped with Cytoseal (Richard-Allan Scientific, Waltham, Mass.).
Unbiased stereological counts of THir cells were performed using a BX52 Olympus microscope (Olympus America Inc.) interfaced with Microbrightfield stereological software and a Microfire CCD camera (Optronics, Goleta, Calif.). Utilizing 2 μm guard zones and a 50 μm×50 μm counting frame a grid size of 112 μm×183 μm was employed to assure that all coefficient of error values were ≦0.10. Using the optical fractionator principle, the regions of interest were individually outlined under a low magnification (1.25×). Using a 60× magnification lens with a 1.4 N/A the section thickness was empirically determined by first bringing the top of the section into focus and then using Microbrightfield software to step through the z-axis in 1 μm increments until the very bottom of the section was in focus. […]

How did the forelimb akinesia [1] turn out when `NC(=O)NC1NC(=O)NC1=O` (stereo not shown) [allantoin] was run?
Its forelimb akinesia is “reduced at four and six weeks post-lesion; also recorded: significantly attenuated”.

And the “number of surviving THir neurons in the lesioned SN relative to the intact side” value (nigral THir neurons)?
The value was 61%±7.9%.

And the “protection of nigral THir neurons against striatal 6-OHDA infusion” value (nigral THir neurons)?
Its value is “significantly protected”.

`OC[C@H]1O[C@@H](n2cnc3c(O)ncnc32)[C@H](O)[C@@H]1O` [inosine] was tested. Which forelimb akinesia [1] did it give?
The forelimb akinesia was “significantly attenuated”.

And the forelimb akinesia ([1]; listed as Inosine)?
Its forelimb akinesia is “significantly ameliorated forelimb akinesia six weeks post lesion”.

What about the “number of surviving THir neurons in the lesioned SN relative to the intact side” value (nigral THir neurons) of the same compound?
Its value is 56%±9.0%.

And the “protection of nigral THir neurons against striatal 6-OHDA infusion” value (nigral THir neurons)?
The value was “significantly protected”.
